Measurements published in ChEMBL document CHEMBL1201862, “PubChem BioAssay data set” (2004).
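Five compound concentrations were applied to cells in 96-well plates for 48 hours; endpoints were derived by simple linear interpolation of the resulting dose-response curve. Here, GI50 denotes the concentration required for 50% inhibition of growth.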 Active and inactive are the calls of the source. No stated cut-off is given here; in the data, active = GI50 up to about 1.1 µM and inactive = higher.

How the values were obtained:
Experiment in all cases: NCI-60 cell line screen, 48 h
[1] = tested on: SK-MEL-28
[2] = tested on: UACC-257
[3] = tested on: RXF 393
[4] = tested on: SK-OV-3
[5] = tested on: NCI-H226
[6] = tested on: HCT-116
[7] = tested on: OVCAR-4
[8] = tested on: RPMI-8226
[9] = tested on: CCRF-CEM
[10] = tested on: HOP-62
[11] = tested on: Hs-578T
[12] = tested on: MOLT-4
[13] = tested on: SNB-75
[14] = tested on: HT-29
[15] = tested on: SNB-19
[16] = tested on: HOP-92
[17] = tested on: M14
[18] = tested on: NCI-H522
[19] = tested on: SK-MEL-5
[20] = tested on: HCT-15
[21] = tested on: Malme-3M
[22] = tested on: TK-10
[23] = tested on: MDA-MB-231
[24] = tested on: K562
[25] = tested on: NCI/ADR-RES
[26] = tested on: SW-620
[27] = tested on: MCF7
[28] = tested on: OVCAR-5
[29] = tested on: A549
[30] = tested on: SR
[31] = tested on: NCI-H23
[32] = tested on: ACHN
[33] = tested on: T47D
[34] = tested on: UO-31
[35] = tested on: U-251
[36] = tested on: OVCAR-8
[37] = tested on: 786-0
[38] = tested on: BT-549
[39] = tested on: IGROV-1
[40] = tested on: PC-3
[41] = tested on: COLO 205
[42] = tested on: KM12
[43] = tested on: MDA-MB-435
[44] = tested on: OVCAR-3
[45] = tested on: A498
[46] = tested on: SF-539
[47] = tested on: SN12C
[48] = tested on: DU-145
[49] = tested on: HCC 2998
[50] = tested on: EKVX
[51] = tested on: SF-295
[52] = tested on: NCI-H460
[53] = tested on: SK-MEL-2
[54] = tested on: MDA-N
[55] = tested on: SF-268
[56] = tested on: CAKI-1
[57] = tested on: LOX IMVI
[58] = tested on: HL-60

SMILES: O=C1N/C(=N/N=C\c2ccccc2)N/C1=C/c1ccccc1
- GI50 [1]: 85.1 µM (inactive)
- GI50 [2]: 53.6 µM (inactive)
- GI50 [3]: 30 µM (inactive)
- GI50 [4]: 37.7 µM (inactive)
- GI50 [5]: 14.8 µM (inactive)
- GI50 [6]: 34.6 µM (inactive)
- GI50 [7]: 15.2 µM (inactive)
- GI50 [8]: 26.6 µM (inactive)
- GI50 [9]: 23.2 µM (inactive)
- GI50 [10]: 19.5 µM (inactive)
- GI50 [11]: 27.3 µM (inactive)
- GI50 [12]: 14.4 µM (inactive)
- GI50 [13]: 25.6 µM (inactive)
- GI50 [14]: 24.9 µM (inactive)
- GI50 [15]: 21.6 µM (inactive)
- GI50 [16]: 22.2 µM (inactive)
- GI50 [17]: 45.4 µM (inactive)
- GI50 [18]: 23.1 µM (inactive)
- GI50 [19]: 35.4 µM (inactive)
- GI50 [20]: 32.9 µM
- GI50 [21]: 34.2 µM (inactive)
- GI50 [22]: 38.5 µM (inactive)
- GI50 [23]: 47 µM (inactive)
- GI50 [24]: 21.3 µM (inactive)
- GI50 [25]: 22.9 µM (inactive)
- GI50 [26]: 38.5 µM (inactive)
- GI50 [27]: 31.5 µM (inactive)
- GI50 [28]: 21.6 µM (inactive)
- GI50 [29]: 35.7 µM (inactive)
- GI50 [30]: 16.1 µM (inactive)
- GI50 [31]: 21.7 µM (inactive)
- GI50 [32]: 13.2 µM (inactive)
- GI50 [33]: 30.3 µM (inactive)
- GI50 [34]: 41.9 µM (inactive)
- GI50 [35]: 33.7 µM (inactive)
- GI50 [36]: 26.2 µM (inactive)
- GI50 [37]: 33.6 µM (inactive)
- GI50 [38]: 22.9 µM (inactive)
- GI50 [39]: 24.8 µM (inactive)
- GI50 [40]: 24.9 µM (inactive)
- GI50 [41]: 68.5 µM (inactive)
- GI50 [42]: 22.5 µM (inactive)
- GI50 [43]: 17.1 µM (inactive)
- GI50 [44]: 32.2 µM (inactive)
- GI50 [45]: 30.9 µM (inactive)
- GI50 [46]: 20.5 µM (inactive)
- GI50 [47]: 39.7 µM (inactive)
- GI50 [48]: 22.3 µM (inactive)
- GI50 [49]: 13.9 µM (inactive)
- GI50 [50]: 23.8 µM (inactive)
- GI50 [51]: 38.9 µM (inactive)
- GI50 [52]: 20.6 µM (inactive)
- GI50 [53]: 27.6 µM (inactive)
- GI50 [54]: 30.6 µM (inactive)
- GI50 [55]: 27.3 µM (inactive)
- GI50 [56]: 27.8 µM (inactive)
- GI50 [57]: 35.9 µM (inactive)
- GI50 [58]: 34 µM (inactive)
